Assay results as given in patent US6608082B1, “Treatment of erectile dysfunction using isoquinoline compound melanocortin receptor ligands” (Lion Bioscience AG, priority 1998, dated 2003).
Like-named read-outs stand apart in the source and are kept apart here.

Columns and labels:
[1] = molecular target: T1, MCR-4 (Homo sapiens, UniProt P32245); assay: Melanocortin receptor binding assay, competition with 125I-HP 467, HEK 293 cells expressing hMCR-4; details: for IC50: read-out: MC-4 IC50
T1 construct: expressed in transfected cells; host or cells: HEK 293
T1 sequence (P32245 whole entry): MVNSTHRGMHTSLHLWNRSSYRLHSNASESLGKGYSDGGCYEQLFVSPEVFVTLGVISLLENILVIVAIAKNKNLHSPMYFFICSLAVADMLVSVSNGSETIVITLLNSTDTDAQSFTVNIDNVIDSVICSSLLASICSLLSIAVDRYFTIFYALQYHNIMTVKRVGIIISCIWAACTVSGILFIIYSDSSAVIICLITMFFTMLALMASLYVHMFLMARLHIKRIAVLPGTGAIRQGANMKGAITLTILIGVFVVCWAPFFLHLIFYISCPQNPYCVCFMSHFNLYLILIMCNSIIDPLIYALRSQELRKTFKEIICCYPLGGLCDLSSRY
Procedure: All cell culture media and reagents were obtained from GibcoBRL (Gaithersburg Md.), except for COSMIC CALF SERUM (HyClone; Logan Utah).
Cells were suspended in PBS, 10% COSMIC CALF SERUM and 1 mM CaCl2. Cell suspensions were prepared at a density of 2×10^4 cells/ml for HEK 293 cells expressing hMCR-3, hMCR-4 or hMCR-5, and 1×10^5 cells/ml for HEK 293 cells expressing hMCR-1. Suspensions were placed in a water bath and allowed to warm to 37° C. for 1 hr.
Binding assays were performed in a total volume of 250 μl for HEK 293 cells. […] To each tube was added 4×10^3 HEK 293 cells expressing hMCR-3, hMCR-4 or hMCR-5, or 2×10^4 cells expressing hMCR-1. Assays were incubated for 2.5 hr at 37° C.
GF/B filter plates were prepared by soaking for at least one hour in 5 mg/ml BSA and 10 mM CaCl2. Assays were filtered using a Brandel 96-well cell harvester (Brandel Inc.; Gaithersburg, Md.). The filters were washed four times with cold 50 mM Tris, pH 7.4, the filter plates were dehydrated for 2 hr and 35 μl of MICROSCINT was added to each well. Filter plates were counted using a Packard Topcount (Packard Instrument Co.) and data analyzed using GraphPad PRISM v2.0 (GraphPad Software Inc.; San Diego Calif.) and Microsoft EXCEL v5.0a (Microsoft Corp.; Redmond Wash.).
To assay isoquinoline compounds, binding assays were performed in duplicate in a 96 well format. […] A 0.2 ml aliquot of suspended cells was added to each well to give the cell numbers indicate above, and the cells were incubated at 37° C. for 2.5 hr. Cells were harvested on GF/B filter plates as described above and counted.

[2] = molecular target: T2, MCR-1 (Homo sapiens, UniProt Q01726); assay: Melanocortin receptor binding assay, competition with 125I-HP 467, HEK 293 cells expressing hMCR-1; details: for IC50: read-out: MC-1 IC50
T2 construct: expressed in transfected cells; host or cells: HEK 293
T2 sequence (Q01726 whole entry): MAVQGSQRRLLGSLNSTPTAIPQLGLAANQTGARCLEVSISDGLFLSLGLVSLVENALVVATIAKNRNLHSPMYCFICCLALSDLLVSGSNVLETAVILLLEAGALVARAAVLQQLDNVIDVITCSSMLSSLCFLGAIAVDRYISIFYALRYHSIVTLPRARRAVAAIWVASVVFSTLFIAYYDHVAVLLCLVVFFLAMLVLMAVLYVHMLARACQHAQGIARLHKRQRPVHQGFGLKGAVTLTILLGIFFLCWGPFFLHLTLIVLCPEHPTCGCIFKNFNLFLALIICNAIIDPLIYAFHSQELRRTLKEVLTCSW
Method in brief: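 Test compounds compete on intact HEK 293 cells carrying hMCR-1 (2×10^4 per tube) or hMCR-4 (4×10^3 per tube), suspended in PBS, 10% calf serum, 1 mM CaCl2.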

[3] = TRG 2406 and TRG 2407 libraries, inhibition of binding of 125I-HP 467
[4] = TRG 2408 and TRG 2409 libraries, inhibition of 125I-HP 467 binding
[5] = competition with 125I-HP 467, HEK 293 cells expressing MCR-4
[6] = competition with 125I-HP 467, HEK 293 cells expressing MCR-1
[7] = inhibition of binding of 125I-HP 467, HEK 293 cells expressing MCR-4, TRG 2414 library
[8] = inhibition of binding of 125I-HP 467, HEK 293 cells expressing MCR-1, TRG 2414 library
[9] = inhibition of binding of 125I-HP 467, HEK 293 cells expressing MCR-4
[10] = inhibition of binding of 125I-HP 467, HEK 293 cells expressing MCR-1

Row | Structure (SMILES) | IC50 [1, 7] [µM] | IC50 [2, 8] [µM] | also measured
1 | CCNc1ccc(C2C(CNc3cccc(O)c3)c3ccccc3CN2CCCCC(CN)NC)cc1 (mixture of isomers) [TRG 2407-47] |  |  | MC-4 IC50 [1, 3]: no fit; IC50 [2, 3]: 0.84 µM
2 | CCNc1ccc(C2C(CNC3CCCCC3)c3ccccc3CN2CCCCC(CN)NCCN)cc1 (mixture of isomers) [TRG 2408-7] |  |  | IC50 [1, 4]: 44.5 µM; IC50 [2, 4]: 1.3 µM
3 | CNCCNC(CN)CCCCN1Cc2ccccc2C(CNC2CCCCC2)C1c1ccc(-c2ccccc2)cc1 (mixture of isomers) [TRG 2408-24] |  |  | IC50 [1, 4]: 17.1 µM; IC50 [2, 4]: 1.94 µM
4 | CCNc1ccc(C2C(CNC3CCCCC3)c3ccccc3CN2CCCCC(N)CN)cc1 (mixture of isomers) [TRG 2408-31] |  |  | IC50 [1, 4]: 46.5 µM; IC50 [2, 4]: 1.27 µM
5 | NCC(CCN1Cc2ccccc2C(CNC2CCCCC2)C1c1ccc(Cl)cc1Cl)NCCc1ccccc1 (mixture of isomers) [TRG 2408-102] |  |  | IC50 [1, 4]: 1.88 µM; IC50 [2, 4]: 7.05 µM
6 | NCC(N)CCN1Cc2ccccc2C(CNC2CCCCC2)C1c1ccc(-c2ccccc2)cc1 (mixture of isomers) [TRG 2408-111] |  |  | IC50 [1, 4]: 12 µM; IC50 [2, 4]: 7.52 µM
7 | CNCCNC(CN)CCN1Cc2ccccc2C(CNC2CCCCC2)C1c1ccc(-c2ccccc2)cc1 (mixture of isomers) [TRG 2408-114] |  |  | IC50 [1, 4]: 10.5 µM; IC50 [2, 4]: 3.24 µM
8 | CNC(C)CNC(CN)CCCCN1Cc2ccccc2C(CN)C1c1ccc(-c2ccccc2)cc1 (mixture of isomers) [TRG 2411-28] |  |  | IC50 [1, 5]: 1.23 µM; IC50 [2, 6]: 0.56 µM
9 | CCNc1ccc(C2C(CNCCc3ccccc3)c3ccccc3CN2CCCCC(CN)NCCc2ccc(Br)cc2)cc1 (mixture of isomers) [TRG 2411-41] |  |  | IC50 [1, 5]: 1.64 µM; IC50 [2, 6]: 0.49 µM
10 | CCCCNc1ccc(C2C(CNC3CCCCC3)c3ccccc3CN2CCCCC(CN)NCC)cc1 (mixture of isomers) [TRG 2411-87] |  |  | IC50 [1, 5]: 0.83 µM; IC50 [2, 6]: 0.23 µM
11 | COc1ccccc1CCNCC1c2ccccc2CN(CCCCC(N)CN)C1c1ccc(Cl)cc1Cl (mixture of isomers) [TRG 2414-9] | 0.7 | 1.1 | 
12 | COc1ccccc1CCNCC1c2ccccc2CN(CCCCC(CN)NCc2ccccc2)C1c1ccc(Cl)cc1Cl (mixture of isomers) [TRG 2414-11] | 3.48 | 1.8 | 
13 | COc1ccc(CCNCC2c3ccccc3CN(CCCCC(CN)NCCc3ccccc3)C2c2ccc(Cl)cc2Cl)cc1 (mixture of isomers) [TRG 2414-26] | 2.52 | 3.95 | 
14 | NCC(N)CCCCN1Cc2ccccc2C(CNC2CCCCCC2)C1c1ccc(Cl)cc1Cl (mixture of isomers) [TRG 2414-33] | 0.72 | 1.9 | 
15 | NCC(N)CCCCN1Cc2ccccc2C(CNC2CCCCC2)C1c1ccc(Cl)cc1Cl (mixture of isomers) [TRG 2414-37] | 1.3 | 0.992 | 
16 | CCCOc1ccc(C2C(CO)c3ccccc3CN2CCCC(CN)NCCC2CCCCC2)cc1 (mixture of isomers) [TRG 2415-4] |  |  | IC50 [1, 9]: 2.55 µM; IC50 [2, 10]: 2.57 µM
17 | CCCCOc1ccc(C2C(CN)c3ccccc3CN2CCCCC(CN)NCC)cc1 (mixture of isomers) [TRG 2415-18] |  |  | IC50 [1, 9]: 7.95 µM; IC50 [2, 10]: 0.306 µM
18 | Cc1ccc(CNC(CN)CCCCN2Cc3ccccc3C(CNCCc3ccccc3)C2c2cc(C(F)(F)F)cc(C(F)(F)F)c2)cc1 (mixture of isomers) [TRG 2421-2] |  |  | IC50 [1, 9]: 3.03 µM; IC50 [2, 10]: 3.73 µM
19 | NCC(CCCCN1Cc2ccccc2C(CNCCc2ccc(O)cc2)C1c1cc(C(F)(F)F)cc(C(F)(F)F)c1)NCc1ccc(Br)cc1 (mixture of isomers) [TRG 2421-8] |  |  | IC50 [1, 9]: 5.99 µM; IC50 [2, 10]: 5 µM
20 | COc1ccc(CCNCC2c3ccccc3CN(CCCCC(CN)NCc3ccc(C)cc3)C2c2cc(C(F)(F)F)cc(C(F)(F)F)c2)cc1OC (mixture of isomers) [TRG 2421-17] |  |  | IC50 [1, 9]: 0.83 µM; IC50 [2, 10]: 2.06 µM

Now from value to compound, other results behind:

Row | IC50 [1, 7] [µM] | IC50 [2, 8] [µM] | Structure (SMILES) | also measured
21 | 4.37 | 2.12 | NCC(CCCCN1Cc2ccccc2C(CNC2CCCCC2)C1c1ccc(Cl)cc1Cl)NCc1ccccc1 (mixture of isomers) [TRG 2414-39] | 
22 | 17.5 | 22.1 | COc1ccccc1CCNCC1c2ccccc2CN(CCCCC(CN)NCC(C)c2ccc(CC(C)C)cc2)C1c1cc(C(F)(F)F)cc(C(F)(F)F)c1 (mixture of isomers) [TRG 2414-52] | 
23 | 9.87 | 10.8 | NCC(N)CCCCN1Cc2ccccc2C(CNCc2ccccc2C(F)(F)F)C1c1cccc(Oc2ccccc2)c1 (mixture of isomers) [TRG 2414-81] | 
24 | 42.9 |  | NCC(CCCCN1Cc2ccccc2C(CNCc2ccccc2C(F)(F)F)C1c1cccc(Oc2ccccc2)c1)NCCc1ccccc1 (mixture of isomers) [TRG 2414-82] | MC-1 IC50 [2, 8]: no fit
25 | 2.17 | 2.43 | CCOc1ccccc1CNCC1c2ccccc2CN(CCCCC(N)CN)C1c1cccc(Oc2ccccc2)c1 (mixture of isomers) [TRG 2414-85] | 
26 |  | 42.6 | COc1ccccc1CCNCC1c2ccccc2CN(CCCCC(CN)NCC(C)c2ccc(CC(C)C)cc2)C1c1cccc(Oc2ccccc2)c1 (mixture of isomers) [TRG 2414-92] | MC-4 IC50 [1, 7]: no fit
27 | 2.5 | 4.51 | COc1cccc(CNCC2c3ccccc3CN(CCCCC(N)CN)C2c2cccc(Oc3ccccc3)c2)c1 (mixture of isomers) [TRG 2414-97] | 
28 | 9.61 | 13.2 | COc1cccc(CNCC2c3ccccc3CN(CCCCC(CN)NCCc3ccccc3)C2c2cccc(Oc3ccccc3)c2)c1 (mixture of isomers) [TRG 2414-98] | 
29 | 7.48 | 8.13 | COc1ccc(CNCC2c3ccccc3CN(CCCCC(CN)NCc3ccccc3)C2c2cccc(Oc3ccccc3)c2)cc1 (mixture of isomers) [TRG 2414-103] | 
30 | 4.49 | 8.44 | NCC(CCCCN1Cc2ccccc2C(CNC2CCCCC2)C1c1cccc(Oc2ccccc2)c1)NCCc1ccccc1 (mixture of isomers) [TRG 2414-118] | 
31 |  | 25 | CCOc1ccccc1CNCC1c2ccccc2CN(CCCCC(CN)NCC(C)c2ccc(CC(C)C)cc2)C1c1ccc(Oc2ccccc2)cc1 (mixture of isomers) [TRG 2414-128] | MC-4 IC50 [1, 7]: no fit
32 | 5.58 | 0.146 | COc1ccccc1CCNCC1c2ccccc2CN(CCCCC(N)CN)C1c1ccc(Oc2ccccc2)cc1 (mixture of isomers) [TRG 2414-129] | 
33 | 16.8 | 8.21 | COc1ccc(CCNCC2c3ccccc3CN(CCCCC(CN)NCCc3ccccc3)C2c2ccc(Oc3ccccc3)cc2)cc1 (mixture of isomers) [TRG 2414-146] | 
34 | 6.71 | 2.74 | NCC(CCCCN1Cc2ccccc2C(CNC2CCCCC2)C1c1ccc(Oc2ccccc2)cc1)NCCc1ccccc1 (mixture of isomers) [TRG 2414-158] | 
35 | 18.4 | 19.1 | CCCOc1ccc(C2C(CNCc3ccccc3C(F)(F)F)c3ccccc3CN2CCCCC(CN)NCCc2ccccc2)cc1 (mixture of isomers) [TRG 2414-162] | 
36 | 5.06 | 0.994 | CCCOc1ccc(C2C(CNCc3ccccc3OCC)c3ccccc3CN2CCCCC(N)CN)cc1 (mixture of isomers) [TRG 2414-165] | 
37 | 5.42 | 4.3 | CCCOc1ccc(C2C(CNCCc3cccc(Cl)c3)c3ccccc3CN2CCCCC(CN)NCCc2ccccc2)cc1 (mixture of isomers) [TRG 2414-174] | 
38 | 5.07 | 0.739 | CCCOc1ccc(C2C(CNCc3cccc(OC)c3)c3ccccc3CN2CCCCC(N)CN)cc1 (mixture of isomers) [TRG 2414-177] | 
39 | 47.1 | 8.19 | CCCOc1ccc(C2C(CNCc3cccc(OC)c3)c3ccccc3CN2CCCCC(CN)NCC(C)c2ccc(CC(C)C)cc2)cc1 (mixture of isomers) [TRG 2414-180] | 
